Holding throughout (format): cell-based
Assay [1] relates to tumour lines deriving from the same tumour type which do not express GOLPH3. The experiment in a line: Growth under anchorage-independent conditions, lines not expressing GOLPH3. As to conditions: 0 to 50 micromolar; lines of same tumour type not expressing GOLPH3; FIG. 2A1 middle series. The procedure: (§1) The growth of tumour lines was evaluated under different experimental conditions. 12 tumour lines, divided into six pairs derived from six different types of tumour, were used. […] The growth of the lines was observed under 3 experimental conditions: 1) absence of anchorage to the matrix; 2) exposure to chemotherapy agents; 3) undisturbed growth under adhesion to the matrix.
(§2) Growth under conditions of adhesion to the matrix and absence of stress (bottom series, black) of the lines expressing an oncogene belonging to the GOLPH3 cluster is not inhibited by miglustat. Inhibition of GSL synthesis was about 70% (at 50 micromolar miglustat).
(§3) GCS enzyme inhibitors such as miglustat, eliglustat and N-[(1R,2R)-2-(2,3-dihydro-1,4-benzodioxin-6-yl)-2-hydroxy-1-(1-pyrrolidinylmethyl)ethyl]-nonanamide (Genz-123346), or P-gp inhibitors such as zosuquidar, were used at two or three different concentrations, depending on the type of dose, to blockade glycosphingolipid biosynthesis in various tumour cells. For the growth assays, new media supplemented with the medicaments were added every three days.
(§4) • 1. Growth in the absence of anchorage (anchorage-independent) • 2. Growth of isolated cell clones (clonogenic analysis) • 3. Growth under adhesion (under adhesion).
(§5) Both the anchorage-independent and clonogenic growth tests were conducted as described previously in Rizzo et al., EMBOJ, 2021. […]

In another assay the test system is GSL synthesis. In words: Glycosphingolipid metabolism (radiolabelling of cell sphingosine, TLC). As to conditions: at 50 micromolar miglustat. The source says:
To analyse the glycosphingolipid metabolites we used a method based on radiolabelling of cell sphingosine followed by extraction of metabolites and separation by thin-layer chromatography (TLC) as previously described in Rizzo et al., EMOJ, 2021.

In assay [2] the test system is lines expressing an oncogene belonging to the GOLPH3 cluster. The experiment in a line: Growth under adhesion to the matrix and absence of stress. The conditions noted are these: lines expressing a GOLPH3 cluster oncogene; FIG. 2A1 bottom series. Here is the method:
as §1, §2, §3, §4, §5

The test system of assay [3] is prostate, colon and liver tumour lines expressing an oncogene belonging to the GOLPH3 cluster. In words: Growth under anchorage-independent conditions, lines expressing a GOLPH3 cluster oncogene. As to conditions: concentrations 0 to 50 micromolar, FIG. 2A1 top series. Here is the method: as §1, §2, §3, §4, §5
In a further assay the test system is LnCap. The experiment in a line: Chemoresistance: growth under adhesion with etoposide, p21 cell cycle arrest, LnCap. The conditions noted are these: FIG. 2B. Here is the method:
(§6) Eliglustat alone has no effect.
(§7) The cells were treated with etoposide at a concentration ranging between 10 and 40 μM for 12-16 hours.
(§8) The p21 levels were determined by immunoblotting as cycle arrest index.

The test system of the next assay is DU145. In words: Chemoresistance: growth under adhesion with etoposide, p21 cell cycle arrest, DU145. The conditions noted are these: FIG. 2B. The procedure: as §6, §7, §8

Take `CCCCN1C[C@H](O)[C@@H](O)[C@H](O)[C@H]1CO` [miglustat]: the “growth under anchorage-independent conditions” value in assay [1] is listed as “not inhibited”; in assay [3], “inhibited”. In the assay with GSL synthesis, this compound returned an inhibition at 50 µM of about 70%. Besides, the “growth under conditions of adhesion to the matrix and absence of stress” value in assay [2] was “not inhibited”.
`COc1cc([C@@H]2c3cc4c(cc3[C@@H](O[C@@H]3O[C@@H]5CO[C@@H](C)O[C@H]5[C@H](O)[C@H]3O)[C@H]3COC(=O)[C@H]23)OCO4)cc(OC)c1O` [etoposide]: the “cell cycle arrest (p21 synthesis), etoposide alone” value in the assay on LnCap (not expressing a GOLPH3 cluster oncogene) is “cell cycle arrest (strong increase in p21 synthesis)”. For the same compound, in the assay on DU145 (DU145, expressing a GOLPH3 cluster oncogene), the “response to etoposide alone (chemoresistance)” value was “resistant”.
On to `CCCCCCCC(=O)N[C@H](CN1CCCC1)[C@H](O)c1ccc2c(c1)OCCO2` [eliglustat], for which the “effect of co-treatment on etoposide-induced cell cycle arrest” value in the assay with LnCap (co-treatment with etoposide) is listed as “does not modify said situation”. Moreover, in the assay on DU145 (DU145, co-treatment with etoposide), the “effect of co-treatment on resistance to etoposide” value is listed as “loses said resistance”. In the assay with DU145 (without etoposide), the “effect of inhibitor alone” value is “no effect”.

As a reminder, the inhibition is the drop in the measured response relative to a control, in per cent.

(Values after patent US20260240828A1, “GLYCOSPHINGOLIPID BIOSYNTHESIS INHIBITORS FOR TREATMENT OF TUMOURS DEPENDENT ON THE ONCOGENE GOLPH3 AND ON ONCOGENES OF THE GOLPH3 CLUSTER” (Golgenia S.R.L., priority 2023, published 2026).)
